According to the supplement of paper PMC4932681:

Experiments:
Assay in all cases: viability inhibition at highest dose (% inhibition); higher = more growth inhibition
BT-474 Tam1 = details: 4-OH-tamoxifen in medium 1 µM; 72 h
Description: (§1)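 Percent inhibition of viability (CellTiter-Glo, 72 h) at the highest tested concentration (D5), normalised to DMSO (0%) and 100 µM benzethonium chloride (100%). Resistant lines and the 'in 1µM tamoxifen' arms were tested in 1 µM 4-OH-tamoxifen.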

BT-474 = details: 72 h
Description: as §1

T-47D = details: 72 h
Description: as §1

ZR-75-1 = details: 72 h
Description: as §1

T-47D Tam2 = details: 4-OH-tamoxifen in medium 1 µM; 72 h
Description: as §1

MCF-7 = details: 72 h
Description: as §1

BT-474 Tam2 = details: 4-OH-tamoxifen in medium 1 µM; 72 h
Description: as §1

ZR-75-1 Tam2 = details: 4-OH-tamoxifen in medium 1 µM; 72 h
Description: as §1

MCF-7 Tam1 = details: 4-OH-tamoxifen in medium 1 µM; 72 h
Description: as §1

T-47D Tam1 = details: 4-OH-tamoxifen in medium 1 µM; 72 h
Description: as §1

ZR-75-1 Tam1 = details: 4-OH-tamoxifen in medium 1 µM; 72 h
Description: as §1

Row | Structure (SMILES) | viability inhibition at highest dose (BT-474 Tam1) | viability inhibition at highest dose (BT-474; 4-OH-tamoxifen in medium 0 µM) | viability inhibition at highest dose (BT-474; 4-OH-tamoxifen in medium 1 µM) | viability inhibition at highest dose (T-47D; 4-OH-tamoxifen in medium 0 µM) | viability inhibition at highest dose (T-47D; 4-OH-tamoxifen in medium 1 µM) | viability inhibition at highest dose (ZR-75-1; 4-OH-tamoxifen in medium 0 µM) | viability inhibition at highest dose (ZR-75-1; 4-OH-tamoxifen in medium 1 µM) | viability inhibition at highest dose (T-47D Tam2) | viability inhibition at highest dose (MCF-7; 4-OH-tamoxifen in medium 0 µM) | viability inhibition at highest dose (MCF-7; 4-OH-tamoxifen in medium 1 µM) | viability inhibition at highest dose (BT-474 Tam2) | viability inhibition at highest dose (ZR-75-1 Tam2) | viability inhibition at highest dose (MCF-7 Tam1) | viability inhibition at highest dose (T-47D Tam1) | viability inhibition at highest dose (ZR-75-1 Tam1)
1 | COc1cccc2c1C(=O)c1c(O)c3c(c(O)c1C2=O)C[C@@](O)(C(C)=O)C[C@@H]3O[C@H]1C[C@H](N)[C@H](O)[C@H](C)O1 [Daunorubicin] (drug 1000 nM) | 72.8 | 53.8 | 95.4 | 72.4 | 73.5 | 63.6 | 55.3 | 68.4 | 78.9 | 87.8 | 32.7 | 70.7 | 32.2 | 67.9 | 64.3
2 | Nc1ncn([C@H]2C[C@H](O)[C@@H](CO)O2)c(=O)n1 [Decitabine (Dacogen)] (drug 10000 nM) | -15.7 | -1.68 | -2.07 | -15 | -11.2 | -8.36 | -6.99 | -3.18 | 17.6 | 2.36 | -4.48 | -2.91 | -12.3 | -9.55 | -4.61
3 | C[C@@H]1C[C@H]2[C@@H]3CCC4=CC(=O)C=C[C@]4(C)[C@@]3(F)[C@@H](O)C[C@]2(C)[C@@]1(O)C(=O)CO [Dexamethasone  (Decadron)] (drug 10000 nM) | 3.71 | -8.58 | -20.8 | -14.5 | -19 | -4.79 | -6.32 | 10.6 | -5.26 | 18 | -0.0711 | 12.7 | -7.5 | 1.63 | 3.7
4 | CC(=O)O[C@@]12CO[C@@H]1C[C@H](O)[C@@]1(C)C(=O)[C@H](O)C3=C(C)[C@@H](OC(=O)[C@H](O)[C@@H](NC(=O)OC(C)(C)C)c4ccccc4)C[C@@](O)([C@@H](OC(=O)c4ccccc4)[C@H]21)C3(C)C [Docetaxel] (drug 1000 nM) | 38.1 | 45.8 | 62.5 | 44.4 | 8.26 | -2.11 | 1.03 | 37.3 | 31.6 | 24.3 | 13.4 | 1.01 | -2.6 | 27.5 | 6.28
5 | Cc1ccc(-n2nc(C(C)(C)C)cc2NC(=O)Nc2ccc(OCCN3CCOCC3)c3ccccc23)cc1 [Doramapimod (BIRB 796)] (drug 10000 nM) | 21 | 3.99 | 15 | 6.71 | -2.59 | -1.07 | 0.647 | 17 | 17.6 | 19.3 | -5.97 | 2.11 | 9.34 | -1.73 | 1.82
6 | CN1CCN(c2ccc3nc(-c4c(N)c5c(F)cccc5[nH]c4=O)[nH]c3c2)CC1 [Dovitinib (CHIR-258)] (drug 10000 nM) | -12.6 | -10.4 | -18.2 | -16.4 | -8.28 | -10.6 | -9.07 | 4.9 | -32.5 | -8.7 | -10.4 | -6.37 | -5.66 | -4.27 | 0.00734
7 | COc1cccc2c1C(=O)c1c(O)c3c(c(O)c1C2=O)C[C@@](O)(C(=O)CO)C[C@@H]3O[C@H]1C[C@H](N)[C@H](O)[C@H](C)O1 [Doxorubicin] (drug 1000 nM) | 68.5 | 65 | 90.4 | 73 | 76.2 | 62.2 | 82.4 | 72.7 | 76.9 | 66.1 | 16.9 | 73.5 | 56.6 | 77.1 | 76.4
8 | Nc1ccccc1NC(=O)c1ccc(CNC(=O)OCc2cccnc2)cc1 [Entinostat] (drug 10000 nM) | 79 | 61.4 | 83.9 | 66.4 | 36.6 | 33.7 | 10.2 | 10.9 | 62.3 | 40.4 | 53.2 | 27.5 | 5.52 | 60.3 | 28.8
9 | CNC(=O)c1ccc(N2C(=S)N(c3ccc(C#N)c(C(F)(F)F)c3)C(=O)C2(C)C)cc1F [Enzalutamide (MDV 3100)] (drug 10000 nM) | 7.43 | -1.06 | -10 | -6.05 | 1.03 | -12.4 | -0.801 | 7.78 | -11.1 | 14.2 | 14.2 | 5.9 | 5.74 | 14 | 6.65
10 | Cn1cc(C2=C(c3cn(C4CCN(Cc5ccccn5)CC4)c4ccccc34)C(=O)NC2=O)c2ccccc21 [Enzastaurin] (drug 10000 nM) | -11.4 | -3.38 | -20.9 | -15.8 | -13.2 | -10.7 | -19.1 | -0.917 | -11 | -13.8 | -1.15 | -0.91 | -11.6 | -9.95 | 1.19
11 | Cc1c(C(=O)Nc2ccc(N3C[C@@H](C)O[C@@H](C)C3)nc2)cccc1-c1ccc(OC(F)(F)F)cc1 [Erismodegib (NVP-LDE225)] (drug 10000 nM) | 15.9 | 18 | 41.1 | 19.8 | 8.8 | -0.79 | 17.1 | 19.2 | 23.2 | 14.6 | 19 | 7.11 | 15.1 | 4.09 | 13.1
12 | C#Cc1cccc(Nc2ncnc3cc(OCCOC)c(OCCOC)cc23)c1 [Erlotinib] (drug 10000 nM) | 94.4 | 43 | 94.5 | 20.8 | 9 | 3.58 | 12.2 | 40 | 4.3 | 0.353 | 87.1 | 10.9 | 12.5 | 39.8 | 14.6
